Structures can show the parent of a compound that is named as a salt.
T1: acetolactate synthase (ALS), resistant enzyme from R-XANST (Xanthium sp., UniProt Q41716)
T1 construct: mature chloroplast form
T1 sequence (Q41716 78-648): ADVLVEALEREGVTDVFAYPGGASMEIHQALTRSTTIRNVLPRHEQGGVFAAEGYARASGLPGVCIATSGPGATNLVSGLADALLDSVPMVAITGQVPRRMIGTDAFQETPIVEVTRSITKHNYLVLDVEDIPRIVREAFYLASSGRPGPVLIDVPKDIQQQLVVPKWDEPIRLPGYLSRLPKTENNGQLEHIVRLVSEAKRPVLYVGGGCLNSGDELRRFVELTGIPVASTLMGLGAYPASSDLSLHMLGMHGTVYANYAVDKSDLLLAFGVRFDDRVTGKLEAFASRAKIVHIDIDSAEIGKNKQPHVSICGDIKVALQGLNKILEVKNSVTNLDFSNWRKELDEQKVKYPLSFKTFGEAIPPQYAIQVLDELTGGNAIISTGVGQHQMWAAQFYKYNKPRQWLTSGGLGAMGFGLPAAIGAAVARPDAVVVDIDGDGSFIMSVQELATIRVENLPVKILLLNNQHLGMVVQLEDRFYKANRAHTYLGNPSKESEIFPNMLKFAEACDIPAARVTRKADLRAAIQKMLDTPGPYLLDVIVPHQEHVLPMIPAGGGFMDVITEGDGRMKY

T2: acetolactate synthase (ALS), sensitive enzyme from S-XANST (Xanthium sp., UniProt Q41717)
T2 construct: mature chloroplast form
T2 sequence (Q41717 78-648): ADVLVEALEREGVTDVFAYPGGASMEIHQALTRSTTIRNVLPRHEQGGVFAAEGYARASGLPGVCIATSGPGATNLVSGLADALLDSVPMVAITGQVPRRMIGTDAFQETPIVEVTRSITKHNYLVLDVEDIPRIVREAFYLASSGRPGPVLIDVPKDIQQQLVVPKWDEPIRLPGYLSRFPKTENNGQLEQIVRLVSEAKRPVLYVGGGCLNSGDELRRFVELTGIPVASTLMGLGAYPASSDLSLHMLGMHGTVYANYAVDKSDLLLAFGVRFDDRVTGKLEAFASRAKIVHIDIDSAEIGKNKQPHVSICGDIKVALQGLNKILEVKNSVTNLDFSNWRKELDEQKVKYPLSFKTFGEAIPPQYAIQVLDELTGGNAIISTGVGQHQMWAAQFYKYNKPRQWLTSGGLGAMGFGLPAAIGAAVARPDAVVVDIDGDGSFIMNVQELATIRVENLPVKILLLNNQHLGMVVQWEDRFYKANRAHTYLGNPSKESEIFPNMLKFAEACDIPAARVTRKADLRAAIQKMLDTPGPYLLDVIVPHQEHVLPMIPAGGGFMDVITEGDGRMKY

B1: acetolactate synthase (ALS), resistant enzyme from R-XANST (Xanthium sp.) (protein)
chain: ADVLVEALEREGVTDVFAYPGGASMEIHQALTRSTTIRNVLPRHEQGGVFAAEGYARASGLPGVCIATSGPGATNLVSGLADALLDSVPMVAITGQVPRRMIGTDAFQETPIVEVTRSITKHNYLVLDVEDIPRIVREAFYLASSGRPGPVLIDVPKDIQQQLVVPKWDEPIRLPGYLSRLPKTENNGQLEHIVRLVSEAKRPVLYVGGGCLNSGDELRRFVELTGIPVASTLMGLGAYPASSDLSLHMLGMHGTVYANYAVDKSDLLLAFGVRFDDRVTGKLEAFASRAKIVHIDIDSAEIGKNKQPHVSICGDIKVALQGLNKILEVKNSVTNLDFSNWRKELDEQKVKYPLSFKTFGEAIPPQYAIQVLDELTGGNAIISTGVGQHQMWAAQFYKYNKPRQWLTSGGLGAMGFGLPAAIGAAVARPDAVVVDIDGDGSFIMSVQELATIRVENLPVKILLLNNQHLGMVVQLEDRFYKANRAHTYLGNPSKESEIFPNMLKFAEACDIPAARVTRKADLRAAIQKMLDTPGPYLLDVIVPHQEHVLPMIPAGGGFMDVITEGDGRMKY
notes: mature chloroplast form

How the values were obtained:
[1] = system: S-XANST (susceptible cocklebur); assay: Herbicidal evaluation, post-emergence spray on susceptible cocklebur; format: in vivo, cocklebur (Xanthium sp.)
Procedure: (§1) Seeds of S-XANST and R-XANST are planted one per pot in soil mix. Pots are placed on a heating mat and the soil temperature increased from about 65° F. to about 90° F. At the 2-3 leaf stage, plants are treated with test herbicides using a linear track laboratory sprayer calibrated to deliver 42.5 GPA. Plants are watered by subirrigation after herbicide application. Observations of percent control are made 21 days after herbicide application. The test ALS inhibitor herbicides are listed below including their chemical class:
(§2) The effect of the various ALS inhibitors against R-XANST and S-XANST is depicted in FIG. 5. The results are reported as % control wherein 100% injury is equal to complete control as determined by growth. All treatments are replicated four times in a randomized complete block design.
(§3) Additionally tests are preformed at much higher herbicide rates to determine the extent of resistance. […] Glean tested at 1.56 lb ai/A, a rate of 100 times field use, provided 88% injury to R-XANST. Pursuit provides 90% injury to R-XANST when used at 100 times the normal field rate, (6.25 lb ai/A).

[2] = system: R-XANST (resistant cocklebur biotype); assay: Herbicidal evaluation, post-emergence spray on resistant cocklebur; format: in vivo, cocklebur (Xanthium sp.)
Procedure: as §1, §2, §3

[3] = molecular target: T1, acetolactate synthase (ALS), resistant enzyme from R-XANST; assay: ALS enzymatic evaluation, resistant enzyme isolated from R-XANST; format: biochemical; settings: ALS from R-XANST leaves, 40% ammonium sulfate fraction; read-out: I50 (M) Resistant
Procedure: (§4) Cocklebur is grown in a greenhouse. Five grams of fresh green leaf tissue are ground to a powder in a mortar at the temperature of liquid nitrogen. The powder is extracted with 100 ml of buffer containing 50 mM N-[2-hydroxyethyl]piperazine-N'-[3-propanesulfonic acid], (EPPS); pH 7.2; 5 mM MgCl2; 2 mM EDTA; 1 mM valine; 1 mM leucine; 10% glycerol; 10 mM pyruvate; 5 mM Dithiothreitol; 1% polyvinyl polypyrrolidone (PVPP) and […] flavin adenine dinucleotide and filtered through cheesecloth. The filtrate was centrifuged at 15,000×g for 15 min.
(§5) The procedures used for the isolation of ALS from cocklebur are similar to those known in the art. The supernatant resulting from centrifugation of the crude extract is brought to 40% ammonium sulfate. The ammonium sulfate pellet is not frozen and is resuspended in standard buffer used for I50 determinations and then gel-filtered through the same buffer. This preparation is used for determinations of Km for pyruvate and I50. The Km is equal to the substrate concentration at which the initial reaction velocity is half maximal and also referred to as the Michaelis-Menten constant. The Km is determined using Lineweaver-Burke double reciporcial plots. I50 is the concentration in which 50% inhibition is observed and is determined from linear regression analysis of the linear portion of the dose/response curve.
(§6) The I50 values by various ALS inhibitors are determined on both sensitive enzymes isolated from S-XANST and resistant enzymes isolated from R-XANST and are reported in Table 1.

[4] = system: acetolactate synthase (ALS), resistant enzyme from R-XANST; assay: as above; format: biochemical; settings: ratio I50 resistant / I50 sensitive enzyme
Procedure: as §4, §5, §6

[5] = molecular target: T2, acetolactate synthase (ALS), sensitive enzyme from S-XANST; assay: ALS enzymatic evaluation, sensitive enzyme isolated from S-XANST; format: biochemical, cocklebur (Xanthium sp.); settings: ALS from S-XANST leaves, 40% ammonium sulfate fraction; read-out: I50 (M) Sensitive
Procedure: as §4
as §5, with “I50 is the concentration in which 50% inhibition is observed and is determined from linear regression analysis of the linear portion of the dose/response curve.” left out
as §6

[6] = substrate: CC(=O)C(=O)O; assay: ALS enzymatic evaluation, resistant enzyme isolated from R-XANST; format: biochemical; settings: other: R-XANST enzyme; Lineweaver-Burke plots; pH 7.2
Procedure: as §4
as §5, with “I50 is the concentration in which 50% inhibition is observed and is determined from linear regression analysis of the linear portion of the dose/response curve.” left out
as §6

Molecule | IC50 [3] [M] | Fold-resistance (R/S) [4] | also measured
COc1cc(OC)nc(Sc2cccc(Cl)c2C(=O)O)n1 [Staple] | – | – | injury to S-XANST ([1]; 0.03 lb ai/A, 21 days after application): greater than 90%; injury to R-XANST ([2]; highest test rate, 9.0 lb ai/A): ≤ 55%
Picolinate | 0.001 | 1,100 | IC50 [5]: 9e-08 M
COc1cc(OC)nc(C(=O)c2c(Cl)ccc(Cl)c2C(=O)O)n1 [SAN 2, 3-6-Dichloro-2-[(4,6-dimethoxy-2-pyrimidinyl)carbonyl]benzoic acid, isopropyl ammonium salt] | – | – | injury to S-XANST ([1]; 0.1 lb ai/A, 2-3 leaf stage, 21 days after application): greater than 95%; injury to R-XANST ([2]; 30 lb ai/A, 21 days after application): ≤ 50%
COc1nc(C)nc(NC(=O)NS(=O)(=O)c2ccccc2Cl)n1 [Chlorsulfurson, 2-chloro-N-[[CH-methoxy-6-methyl-1,3,5-triazin-2-yl-amino]carbonyl]benzenesulfonamide] | 5e-05 | 6,250 | injury to R-XANST ([2]; 1.56 lb ai/A, 100 times field use): 88%
CC(C)C1(C)N=C(c2nc3ccccc3cc2C(=O)O)NC1=O (stereo not drawn) [Imazaquin, 2-[4,5-dihydro-4-methyl-4-(1-methylethyl)-5-oxo-1H-imidazole-2-yl]-3-quinolinecarboxylic acid] | 0.0001 | 250 | –
COc1cc(OC)nc(C(=O)c2c(Cl)ccc(Cl)c2C(=O)O)n1 [Di-Cl benzoate] | 0.0006 | 2,200 | –
Cc1ccn2nc(S(=O)(=O)Nc3c(F)cccc3F)nc2n1 [Broadstrike] | 0.0006 | 10,000 | injury to S-XANST ([1]; 0.01 lb ai/A): greater than 95%; injury on R-XANST ([2]; 6 lb ai/A): 25%
CCc1cnc(C2=NC(C)(C(C)C)C(=O)N2)c(C(=O)O)c1 (single isomer, unassigned; (+)) [Imazethapyr, (+)-2-[4,5-dihydro-4-methyl-4-(1-methylethyl)-5-oxo-1H-imidazole-2-yl]-5-ethyl-3-pyridinecarboxylic acid] | 0.0001 | 100 | injury to R-XANST ([2]; 100 times the normal field rate, 6.25 lb ai/A): 90%
CC(C)C[C@H](N)C(=O)O [Leucine] | 0.001 | 1 | –
B1 | – | – | Km [6]: 6 mM
